In patent publication US6187905A, “Alpha-ketoamide derivatives” (Hoffmann-La Roche Inc., priority 1998, dated 2001) one finds IC50 data, which are given here for 10 compounds.

*1 amine or outer side, *2 acyl side, *3 side chain or, on linkers, in order; H or OH if unused. Where a SMILES comes first, the peptide text is derived from it. [ ]: non-standard residue; d: D form. The star is where a group is joined. Phe(2-Me) = Cc1ccccc1C[C@H](N)C(=O)O; NleCONH2 = CCCC[C@H](N*)C(=O)C(N)=O; Suc = O=C(CCC(=O)[*:2])[*:1]; Tle = CC(C)(C)[C@H](N)C(=O)O

The target of the first test is HCV proteinase (Hepatitis C virus genotype 1a, UniProt P27958). Description: HCV proteinase inhibition assay (described in WO 98/22496). Format: biochemical.
Chain of HCV proteinase (P27958 1027-1208): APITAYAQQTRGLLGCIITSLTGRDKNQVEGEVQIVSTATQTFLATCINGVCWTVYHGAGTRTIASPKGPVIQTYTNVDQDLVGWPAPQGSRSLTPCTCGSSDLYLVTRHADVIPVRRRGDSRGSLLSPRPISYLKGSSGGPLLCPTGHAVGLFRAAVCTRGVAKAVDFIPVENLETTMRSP
Details: not given
The source says:
As mentioned earlier, the compounds of formula I and their salts are inhibitors of proteases of viral origin. For example, all compounds of formula 1 are inhibitors against HCV protease.
One may read the IC50 as the point on the concentration scale where inhibition reaches its midpoint. As for `Cc1ccccc1C[C@H](NC(=O)[C@H](CCC(=O)O)NC(=O)[C@H](CC(=O)O)NC(=O)CCC(=O)O)C(=O)N[C@H](C(=O)N[C@@H](CC(C)C)C(=O)NC(CC(F)(F)F)C(=O)C(=O)N[C@@H](C)c1ccccc1)C(C)(C)C` (mixture of isomers) [G, 3(RS)-[[N-[N-[N-[N-[N-(3-Carboxypropionyl)-L-α-aspartyl]-L-α-glutamyl]-2-methyl-L-phenylalanyl]-3-methyl-L-valyl]-L-leucyl]amino]-5,5,5-trifluoro-N-(α(S)-methylbenzyl)-2-oxovaleramide], it took 4 nM to reach half-maximal inhibition (IC50).
The same measure, in the same setting: then `COc1cccc(CNC(=O)C(=O)C(CC(F)(F)F)NC(=O)[C@H](CC(C)C)NC(=O)[C@@H](NC(=O)[C@H](Cc2ccccc2C)NC(=O)[C@H](CCC(=O)O)NC(=O)[C@H](CC(=O)O)NC(=O)CCC(=O)O)C(C)(C)C)c1` (mixture of isomers) [F, 3(RS)-[[N-[N-[N-[N-[N-(3-Carboxypropionyl)-L-α-aspartyl]-L-α-glutamyl]-2-methyl-L-phenylalanyl]-3-methyl-L-valyl]-L-leucyl]amino]-5,5,5-trifluoro-N-(3-methoxybenzyl)-2-oxovaleramide], with 6 nM; and `Cc1ccccc1C[C@H](NC(=O)[C@H](CCC(=O)O)NC(=O)[C@H](CC(=O)O)NC(=O)CCC(=O)O)C(=O)N[C@H](C(=O)N[C@@H](CC(C)C)C(=O)NC(CC(F)(F)F)C(=O)C(N)=O)C(C)(C)C` (single isomer, unassigned) [D, 3(R or S)-[[N-[N-[N-[N-[N-(3-Carboxypropionyl)-L-α-aspartyl]-L-α-glutamyl]-2-methyl-L-phenylalanyl]-3-methyl-L-valyl]-L-leucyl]amino]-5,5,5-trifluoro-2-oxovaleramide], with 7 nM.
With `CC[C@H](NC(=O)C(=O)C(CC(F)(F)F)NC(=O)[C@H](CC(C)C)NC(=O)[C@@H](NC(=O)[C@H](Cc1ccccc1C)NC(=O)[C@H](CCC(=O)O)NC(=O)[C@H](CC(=O)O)NC(=O)CCC(=O)O)C(C)(C)C)c1ccccc1` (mixture of isomers) [B, 3(RS)-[[N-[N-[N-[N-[N-(3-Carboxypropionyl)-L-α-aspartyl]-L-α-glutamyl]-2-methyl-L-phenylalanyl]-3-methyl-L-valyl]-L-leucyl]amino]-5,5,5-trifluoro-2-oxo-N-(1(S)-phenylpropyl)valeramide], the IC50 is 7 nM.
Regarding `Cc1ccccc1C[C@H](NC(=O)[C@H](CCC(=O)O)NC(=O)[C@H](CC(=O)O)NC(=O)CCC(=O)O)C(=O)N[C@H](C(=O)N[C@@H](CC(C)C)C(=O)NC(CC(F)(F)F)C(=O)C(=O)NCc1ccccc1)C(C)(C)C` (mixture of isomers) [H, N-Benzyl-3(RS)-[[N-[N-[N-[N-[N-(3-carboxypropionyl)-L-α-aspartyl]-L-α-glutamyl]-2-methyl-L-phenylalanyl]-3-methyl-L-valyl]-L-leucyl]amino]-5,5,5-trifluoro-2-oxovaleramide], the IC50 is 4 nM.
Still for that read-out and setting: then `Cc1ccccc1C[C@H](NC(=O)[C@H](CCC(=O)O)NC(=O)[C@H](CC(=O)O)NC(=O)CCC(=O)O)C(=O)N[C@H](C(=O)N[C@@H](CC(C)C)C(=O)NC(CC(F)(F)F)C(=O)C(=O)NCc1ccc(O)cc1)C(C)(C)C` (mixture of isomers) [E, 3(RS)-[[N-[N-[N-[N-[N-(3-Carboxypropionyl)-L-α-aspartyl]-L-α-glutamyl]-2-methyl-L-phenylalanyl]-3-methyl-L-valyl]-L-leucyl]amino]-5,5,5-trifluoro-N-(4-hydroxybenzyl)-2-oxovaleramide], with 4 nM.
The same measure, in the same setting: for `CCCC[C@H](NC(=O)[C@H](CC(C)C)NC(=O)[C@@H](NC(=O)[C@H](Cc1ccccc1C)NC(=O)[C@H](CCC(=O)O)NC(=O)[C@H](CC(=O)O)NC(=O)CCC(=O)O)C(C)(C)C)C(=O)C(N)=O` [J, 3(S)-[[N-[N-[N-[N-[N-(3-Carboxypropionyl)-L-α-aspartyl]-L-α-glutamyl]-2-methyl-L-phenylalanyl]-3-methyl-L-valyl]-L-leucyl]amino]-2-oxoheptanamide] (Suc-DE[Phe(2-Me)][Tle]L-NleCONH2) the value was 11.5 nM.
Still for that read-out and setting: for `Cc1ccccc1C[C@H](NC(=O)[C@H](CCC(=O)O)NC(=O)[C@H](CC(=O)O)NC(=O)CCC(=O)O)C(=O)N[C@H](C(=O)N[C@@H](CC(C)C)C(=O)NC(CC(F)(F)F)C(=O)C(=O)N[C@H](c1ccccc1)C(C)C)C(C)(C)C` (mixture of isomers) [C, 3(RS)-[[N-[N-[N-[N-[N-(3-Carboxypropionyl)-L-α-aspartyl]-L-α-glutamyl]-2-methyl-L-phenylalanyl]-3-methyl-L-valyl]-L-leucyl]amino]-5,5,5-trifluoro-N-(2-methyl-1(S)-phenylpropyl)-2-oxovaleramide] the value was 7 nM.

The test is the same for the next values; noted with them: read-out: HCV proteinase IC50.
Regarding `Cc1ccccc1C[C@H](NC(=O)[C@H](CCC(=O)O)NC(=O)[C@H](CC(=O)O)NC(=O)CCC(=O)O)C(=O)N[C@H](C(=O)N[C@@H](CC(C)C)C(=O)NC(CC(F)(F)F)C(=O)C(=O)N[C@@H](C)c1ccc2ccccc2c1)C(C)(C)C` (mixture of isomers) [A], the IC50 stood at 4 nM.
Same read-out and setting: for `Cc1ccccc1C[C@H](NC(=O)[C@H](CCC(=O)O)NC(=O)[C@H](CC(=O)O)NC(=O)CCC(=O)O)C(=O)N[C@H](C(=O)N[C@@H](CC(C)C)C(=O)NC(CC(F)(F)F)C(=O)C(=O)N[C@@H](C)c1ccc2ccccc2c1)C(C)(C)C` (mixture of isomers) [I] the value was 8 nM.
